Laboratory results from patent US12370235B2, “Synthetic, non-natural antimicrobial peptides inspired by Staphylococcus auricularis delta toxin” (University of Saskatchewan, priority 2021, dated 2025).
Ends that are not written are not given here.

Tests used:
S. aureus ATCC 29213 = assay: MIC, broth dilution; type: cell-based, Staphylococcus aureus; settings: Table 5; STIP3 variants, highest concentration 100 μg/mL
Experimental: (§1) MIC determination. MICs were measured using peptides with 95% purity. For bacterial studies, cation-adjusted Mueller Hinton (MH) broth was used as the growth medium whereas Yeast Peptone Dextrose (YPD; 10 g/L yeast extract, 20 g/L peptone, 20 g/L dextrose) was used for Candida spp. and other yeast. Microorganisms were diluted to an optical density of […] in MH or YPD broth and a 180 μl volume was mixed with 20 μl of peptide arrayed as a 2-fold dilution series in a flat-bottom 96-well microtitre plate. A control was performed using 20 μl of sterile water. Plates were incubated as standing cultures overnight at 37° C.
(§2) Determination of minimum inhibitory concentrations. The MICs were measured for bioactive peptides identified from the initial screen. For bacterial studies, cation-adjusted Mueller Hinton (MH) broth was used as the growth medium whereas YPD was used for C. albicans. Bacterial cultures were diluted to a OD value of 6×10^−4 in MH broth and a 180 μl volume was mixed with 20 μl of peptide arrayed as 2-fold dilution series in a 96-well plate. For the positive control, 20 μl of sterile water was used. Plates were incubated as standing cultures overnight at 37° C. The lowest peptide concentration that resulted no observed microbial growth after an overnight treatment was defined as the MIC.

[1] = tested on: S. aureus ATCC 33592 (MRSA SCCmec type III); assay: MIC, broth dilution; type: cell-based, Staphylococcus aureus; settings: Table 5; STIP3 variants, highest concentration 100 μg/mL
Experimental: as §1, §2

[2] = tested on: S. aureus ATCC BAA-1683 (MRSA SCCmec type IV); assay: MIC, broth dilution; type: cell-based, Staphylococcus aureus; settings: Table 5; STIP3 variants, highest concentration 100 μg/mL
Experimental: as §1, §2

[3] = tested on: S. aureus ATCC BAA-2094 (MRSA SCCmec type V); assay: MIC, broth dilution; type: cell-based, Staphylococcus aureus; settings: Table 5; STIP3 variants, highest concentration 100 μg/mL
Experimental: as §1, §2

[4] = tested on: S. aureus ATCC BAA-2313 (MRSA SCCmec type XI); assay: MIC, broth dilution; type: cell-based, Staphylococcus aureus; settings: Table 5; STIP3 variants, highest concentration 100 μg/mL
Experimental: as §1, §2

[5] = tested on: S. aureus ATCC BAA-41 (MRSA SCCmec type II); assay: MIC, broth dilution; type: cell-based, Staphylococcus aureus; settings: Table 5; STIP3 variants, highest concentration 100 μg/mL
Experimental: as §1, §2

[6] = tested on: S. aureus ATCC BAA-42 (MRSA SCCmec type VI); assay: MIC, broth dilution; type: cell-based, Staphylococcus aureus; settings: Table 5; STIP3 variants, highest concentration 100 μg/mL
Experimental: as §1, §2

[7] = tested on: S. aureus ATCC BAA-44 (MRSA SCCmec type I); assay: MIC, broth dilution; type: cell-based, Staphylococcus aureus; settings: Table 5; STIP3 variants, highest concentration 100 μg/mL
Experimental: as §1, §2

[8] = tested on: Mannheimia haemolytica ATCC 33393; assay: MIC, broth dilution; type: cell-based; settings: Table 11; highest concentration 25 μg/mL
Experimental: as §1, §2
The ability of STIP3 variants to inhibit the growth of Mannheimia haemolytica ATCC 33393 was evaluated. This included an alanine scan of STIP3-1 (FIG. 8 & Table 10) as well as 30 rationally-designed STIPs that were evaluated in the preceding Examples against other pathogens (Table 11). Substitutions at a greater number of sites were tolerated in the context of antimicrobial activity. Moreover, the inclusion of basic natural and unnatural amino acids (e.g. lysine, ornithine, and arginine) at positions 3, 4 and 11 (i.e. X1, X2, and X4 of SEQ ID NO: 32) to afford a more uniformly cationic peptide increased activity against M. haemolytica.

C. albicans MYA-2876 = assay: MIC, YPD broth; type: cell-based, Candida albicans; settings: Table 8
Experimental: as §1, §2

[9] = tested on: Candida duobushaemulonii AR 391; assay: MIC, YPD broth, CDC and FDA AR Candida isolate panel; type: cell-based; settings: Table 9 below the line: only 200 or 100 μg/mL tested; values reported as 100 are ≤100 μg/mL
Experimental: as §1

[10] = tested on: Candida duobushaemulonii AR 392; assay: as above; type: cell-based; settings: Table 9 below the line: only 200 or 100 μg/mL tested; values reported as 100 are ≤100 μg/mL
Experimental: as §1

[11] = tested on: Candida duobushaemulonii AR 394; assay: as above; type: cell-based; settings: Table 9 below the line: only 200 or 100 μg/mL tested; values reported as 100 are ≤100 μg/mL
Experimental: as §1

[12] = tested on: Candida haemulonii AR 393; assay: as above; type: cell-based; settings: Table 9 below the line: only 200 or 100 μg/mL tested; values reported as 100 are ≤100 μg/mL
Experimental: as §1

[13] = tested on: Candida haemulonii AR 395; assay: as above; type: cell-based; settings: Table 9 below the line: only 200 or 100 μg/mL tested; values reported as 100 are ≤100 μg/mL
Experimental: as §1

Candida krusei AR 397 = assay: as above; type: cell-based; settings: Table 9 below the line: only 200 or 100 μg/mL tested; values reported as 100 are ≤100 μg/mL
Experimental: as §1

[14] = tested on: Candida lusitaniae AR 398; assay: as above; type: cell-based; settings: Table 9 below the line: only 200 or 100 μg/mL tested; values reported as 100 are ≤100 μg/mL
Experimental: as §1

Kodamae ohmeri AR 396 = assay: as above; type: cell-based; settings: Table 9 below the line: only 200 or 100 μg/mL tested; values reported as 100 are ≤100 μg/mL
Experimental: as §1

[15] = tested on: Saccharomyces cerevisiae AR 399; assay: as above; type: cell-based; settings: Table 9 below the line: only 200 or 100 μg/mL tested; values reported as 100 are ≤100 μg/mL
Experimental: as §1

[16] = tested on: Saccharomyces cerevisiae AR 400; assay: as above; type: cell-based; settings: Table 9 below the line: only 200 or 100 μg/mL tested; values reported as 100 are ≤100 μg/mL
Experimental: as §1

| Sequence | MIC S. aureus ATCC 29213 (S. aureus ATCC 29213) | MIC S. aureus ATCC 33592 (III) [1] | MIC S. aureus ATCC BAA 1683 (IV) [2] | MIC S. aureus ATCC BAA 2094 (V) [3] | MIC S. aureus ATCC BAA 2313 (XI) [4] | MIC S. aureus ATCC BAA 41 (II) [5] | MIC S. aureus ATCC BAA 42 (VI) [6] | MIC S. aureus ATCC BAA 44 (I) [7] | MIC (μg/mL) M. haemolytica [8] [µg/mL] | MIC C. albicans MYA-2876 (C. albicans MYA-2876) [µg/mL] | MIC (μg/mL) Candida duobushaemulonii AR 391 [9] | MIC (μg/mL) Candida duobushaemulonii AR 392 [10] | MIC (μg/mL) Candida duobushaemulonii AR 394 [11] | MIC (μg/mL) Candida haemulonii AR 393 [12] | MIC (μg/mL) Candida haemulonii AR 395 [13] | MIC (μg/mL) Candida krusei AR 397 (Candida krusei AR 397) [µg/mL] | MIC (μg/mL) Candida lusitaniae AR 398 [14] [µg/mL] | MIC (μg/mL) Kodamae ohmeri AR 396 (Kodamae ohmeri AR 396) | MIC (μg/mL) Saccharomyces cerevisiae AR 399 [15] [µg/mL] | MIC (μg/mL) Saccharomyces cerevisiae AR 400 [16] [µg/mL] |
| --- | --- | --- | --- | --- | --- | --- | --- | --- | --- | --- | --- | --- | --- | --- | --- | --- | --- | --- | --- | --- |
| TVGGLVKWILDTVKKFI [STIP3-5, TVGGLVKWILDTVKKFI] | 50 µg/mL | 25 µg/mL | 25 µg/mL | 25 µg/mL | 25 µg/mL | 25 µg/mL | 12.5 µg/mL | 50 µg/mL | 25 | 100 | > (values below the line were determined using two concentrations of peptide 200 or 100 μg/mL) | > (values below the line were determined using two concentrations of peptide 200 or 100 μg/mL) | > (values below the line were determined using two concentrations of peptide 200 or 100 μg/mL) | > (values below the line were determined using two concentrations of peptide 200 or 100 μg/mL) | > (values below the line were determined using two concentrations of peptide 200 or 100 μg/mL) | ≤ 100 | ≤ 100 | > (values below the line were determined using two concentrations of peptide 200 or 100 μg/mL) | ≤ 100 | ≤ 100 |
| TVGGLVKWILDTVKKFK [STIP3-7, TVGGLVKWILDTVKKFK] | > (no inhibition was observed at the highest concentration of peptide tested: 100 μg/mL for the STIP3 variants) | > (no inhibition was observed at the highest concentration of peptide tested: 100 μg/mL for the STIP3 variants) | > (no inhibition was observed at the highest concentration of peptide tested: 100 μg/mL for the STIP3 variants) | > (no inhibition was observed at the highest concentration of peptide tested: 100 μg/mL for the STIP3 variants) | > (no inhibition was observed at the highest concentration of peptide tested: 100 μg/mL for the STIP3 variants) | > (no inhibition was observed at the highest concentration of peptide tested: 100 μg/mL for the STIP3 variants) | > (no inhibition was observed at the highest concentration of peptide tested: 100 μg/mL for the STIP3 variants) | > (no inhibition was observed at the highest concentration of peptide tested: 100 μg/mL for the STIP3 variants) | 25 | 50 | > (values below the line were determined using two concentrations of peptide 200 or 100 μg/mL) | > (values below the line were determined using two concentrations of peptide 200 or 100 μg/mL) | > (values below the line were determined using two concentrations of peptide 200 or 100 μg/mL) | > (values below the line were determined using two concentrations of peptide 200 or 100 μg/mL) | > (values below the line were determined using two concentrations of peptide 200 or 100 μg/mL) | ≤ 100 | ≤ 100 | > (values below the line were determined using two concentrations of peptide 200 or 100 μg/mL) | ≤ 100 | ≤ 100 |
| TVGGLVKWILDTVKKFW [STIP3-6, TVGGLVKWILDTVKKFW] | 12.5 µg/mL | 12.5 µg/mL | 12.5 µg/mL | 12.5 µg/mL | 12.5 µg/mL | 12.5 µg/mL | 12.5 µg/mL | 25 µg/mL | 25 | 50 | > (values below the line were determined using two concentrations of peptide 200 or 100 μg/mL) | > (values below the line were determined using two concentrations of peptide 200 or 100 μg/mL) | > (values below the line were determined using two concentrations of peptide 200 or 100 μg/mL) | > (values below the line were determined using two concentrations of peptide 200 or 100 μg/mL) | > (values below the line were determined using two concentrations of peptide 200 or 100 μg/mL) | ≤ 100 | ≤ 100 | > (values below the line were determined using two concentrations of peptide 200 or 100 μg/mL) | ≤ 100 | ≤ 100 |
| TVGGLVKWILDVVKKFA [STIP3-9, TVGGLVKWILDVVKKFA] | 25 µg/mL | 25 µg/mL | 25 µg/mL | 25 µg/mL | 25 µg/mL | 35 µg/mL | 25 µg/mL | 25 µg/mL | 25 | 50 | > (values below the line were determined using two concentrations of peptide 200 or 100 μg/mL) | > (values below the line were determined using two concentrations of peptide 200 or 100 μg/mL) | > (values below the line were determined using two concentrations of peptide 200 or 100 μg/mL) | > (values below the line were determined using two concentrations of peptide 200 or 100 μg/mL) | > (values below the line were determined using two concentrations of peptide 200 or 100 μg/mL) | ≤ 100 | ≤ 100 | > (values below the line were determined using two concentrations of peptide 200 or 100 μg/mL) | ≤ 100 | ≤ 100 |
